Assay results reported in US20060089371A1, “Phenyl or heteroaryl amino alkane derivatives as ip receptor antagonist” (Bayer HealthCare AG, priority 2002, published 2006).

What was measured:
IP receptor = biological target: T1, IP receptor (Homo sapiens, UniProt P43119); assay: IP receptor binding/cAMP in HEL cells ([3H]-iloprost binding, Assay 1; iloprost-induced cAMP production, Assay 2); conditions: compounds of about 40 to 90% purity, read-out: In vitro activity grade (IC50 class)
T1 construct: one million cells in 160 μl aliquot of cell suspension were put in a well of 96 well plate; host or cells: HEL 92.1.7 human erythroleukemia cells (whole cells)
In short: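 For binding (Assay 1), 1×10^6 HEL 92.1.7 cells in 50 mM Tris-HCl, 5 mM MgCl2, pH 7.5 were incubated with [3H]-iloprost (0.02 μCi) for 30 min at RT and filter-counted; a 100 μM iloprost solution defined non-specific binding. Compounds were of 40-90% purity.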

T1 sequence (P43119 whole entry): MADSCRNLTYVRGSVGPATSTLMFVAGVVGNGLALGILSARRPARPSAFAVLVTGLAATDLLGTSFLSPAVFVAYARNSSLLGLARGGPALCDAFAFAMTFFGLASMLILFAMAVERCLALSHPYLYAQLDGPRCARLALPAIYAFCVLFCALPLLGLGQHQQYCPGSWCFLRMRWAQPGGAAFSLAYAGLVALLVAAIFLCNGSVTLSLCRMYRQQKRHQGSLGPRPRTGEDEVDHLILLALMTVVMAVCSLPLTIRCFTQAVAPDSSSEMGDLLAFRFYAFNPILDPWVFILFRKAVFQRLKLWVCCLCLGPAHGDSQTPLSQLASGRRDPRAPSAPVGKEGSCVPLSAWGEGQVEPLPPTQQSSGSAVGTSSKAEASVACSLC

Structure (SMILES): O=C(O)C(Cc1ccccc1)Nc1cc(-c2ccc(OCc3cc(F)cc(F)c3)cc2)ncn1 (stereo not drawn) [Example 2-11]
- melting point: 207 to 210 °C (dec.)
- IC50 (IP receptor): < 100 nM

Structure (SMILES): CC(C)Oc1ccc(-c2cc(NC(Cc3ccccc3)C(=O)O)ncn2)cc1 (stereo not drawn) [Example 2-12]
- melting point: 201 to 204 °C (dec.)
- IC50 (IP receptor): < 100 nM

Structure (SMILES): COc1ccc(-c2cc(NC(Cc3ccccc3)C(=O)O)ncn2)cc1 (stereo not drawn) [Example 2-13]
- melting point: 203 to 206 °C (dec.)
- IC50 (IP receptor): 100 to 1000 nM

Structure (SMILES): O=C(O)C(Cc1ccccc1)Nc1cc(-c2ccc(OCc3cccc(O)c3)cc2)ncn1 (stereo not drawn) [Example 2-14]
- melting point: 190 to 193 °C (dec.)
- IC50 (IP receptor): < 100 nM

Structure (SMILES): O=C(O)C(Cc1ccccc1)Nc1cc(-c2ccc(OCC3CCC3)cc2)ncn1 (stereo not drawn) [Example 2-15]
- melting point: 210 to 213 °C (dec.)
- IC50 (IP receptor): < 100 nM

Structure (SMILES): O=C(O)C(Cc1ccccc1)Nc1cc(-c2ccc(OCCc3ccccc3)cc2)ncn1 (stereo not drawn) [Example 2-16]
- melting point: 214 to 216 °C (dec.)
- IC50 (IP receptor): < 100 nM

Structure (SMILES): CC(C)COc1ccc(-c2cc(NC(Cc3ccccc3)C(=O)O)ncn2)cc1 (stereo not drawn) [Example 2-17]
- melting point: 210 to 213 °C (dec.)
- IC50 (IP receptor): < 100 nM

Structure (SMILES): O=C(O)C(Cc1ccccc1)Nc1cc(-c2ccc(OCC3CCCC3)cc2)ncn1 (stereo not drawn) [Example 2-20]
- melting point: 125 to 128 °C
- IC50 (IP receptor): < 100 nM

Structure (SMILES): O=C(O)C(Cc1ccccc1)Nc1cc(-c2ccc(OCc3cccnc3)cc2)ncn1 (stereo not drawn) [Example 2-21]
- melting point: 135 to 136 °C (dec.)
- IC50 (IP receptor): < 100 nM

Structure (SMILES): O=C(O)C(Cc1ccccc1)Nc1cc(-c2ccc(OCCN3CCCC3)cc2)ncn1 (stereo not drawn) [Example 2-22]
- melting point: 117 to 120 °C
- IC50 (IP receptor): > 1000 nM

Structure (SMILES): O=C(O)C(Cc1ccccc1)Nc1cc(-c2ccc(OCCc3cccnc3)cc2)ncn1 (stereo not drawn) [Example 2-23]
- melting point: 85 to 88 °C
- IC50 (IP receptor): < 100 nM

Structure (SMILES): COCCOc1ccc(-c2cc(NC(Cc3ccccc3)C(=O)O)ncn2)cc1 (stereo not drawn) [Example 2-24]
- melting point: 190 to 193 °C (dec.)
- IC50 (IP receptor): < 100 nM

Structure (SMILES): O=C(O)C(Cc1ccccc1)Nc1cc(-c2ccc(OCCCc3ccccc3)cc2)ncn1 (stereo not drawn) [Example 2-25]
- melting point: 101 to 104 °C
- IC50 (IP receptor): < 100 nM

Structure (SMILES): O=C(O)C(Cc1ccccc1)Nc1cc(-c2ccc(OCCc3ccccn3)cc2)ncn1 (stereo not drawn) [Example 2-26]
- melting point: 120 to 122 °C (dec.)
- IC50 (IP receptor): < 100 nM

Structure (SMILES): O=C(O)C(Cc1ccccc1)Nc1cc(-c2ccc(OCCc3ccncc3)cc2)ncn1 (stereo not drawn) [Example 2-27]
- melting point: 113 to 115 °C
- IC50 (IP receptor): < 100 nM

Structure (SMILES): O=C(O)C(Cc1ccccc1)Nc1cc(-c2ccc(OCc3ccccn3)cc2)ncn1 (stereo not drawn) [Example 2-28]
- melting point: 120 to 123 °C
- IC50 (IP receptor): < 100 nM

Structure (SMILES): O=C(O)C(Cc1ccccc1)Nc1cc(-c2ccc(OCc3ccncc3)cc2)ncn1 (stereo not drawn) [Example 2-29]
- melting point: 110 to 113 °C
- IC50 (IP receptor): < 100 nM

Structure (SMILES): O=C(O)C(Cc1cccc(O)c1)Nc1cc(-c2ccc(OCc3ccccc3)cc2)ncn1 (stereo not drawn) [Example 2-30]
- melting point: 169 °C
- IC50 (IP receptor): < 100 nM

Structure (SMILES): O=C(O)C(Cc1ccccc1)Nc1cc(-c2ccc(OCC(F)(F)F)cc2)ncn1 (stereo not drawn) [Example 2-31]
- melting point: 109 to 112 °C
- IC50 (IP receptor): < 100 nM

Structure (SMILES): O=C(O)C(Cc1ccccn1)Nc1cc(-c2ccc(OCc3ccccc3F)cc2)ncn1 (stereo not drawn) [Example 2-32]
- melting point: 84 to 87 °C
- IC50 (IP receptor): < 100 nM

Structure (SMILES): O=C(O)C(Cc1ccccn1)Nc1cc(-c2ccc(OCc3cccc(F)c3)cc2)ncn1 (stereo not drawn) [Example 2-33]
- melting point: 92 to 95 °C
- IC50 (IP receptor): < 100 nM

Structure (SMILES): CCCCC(Nc1cc(-c2ccc(OCc3ccccc3F)cc2)ncn1)C(=O)O (stereo not drawn) [Example 2-34]
- melting point: 85 to 90 °C
- IC50 (IP receptor): < 100 nM

Structure (SMILES): CCCCC(Nc1cc(-c2ccc(OCc3cccc(F)c3)cc2)ncn1)C(=O)O (stereo not drawn) [Example 2-35]
- melting point: 181 to 186 °C
- IC50 (IP receptor): < 100 nM

Structure (SMILES): O=C(O)C(Cc1ccccn1)Nc1cc(-c2ccc(OCCc3ccccc3)cc2)ncn1 (stereo not drawn) [Example 2-38]
- melting point: 52 to 53 °C
- IC50 (IP receptor): < 100 nM

Structure (SMILES): O=C(O)C(Cc1ccccn1)Nc1cc(-c2ccc(OCc3cc(F)cc(F)c3)cc2)ncn1 (stereo not drawn) [Example 2-39]
- melting point: 90 to 92 °C
- IC50 (IP receptor): < 100 nM

Structure (SMILES): CCCCC(Nc1cc(-c2ccc(OCCc3ccccc3)cc2)ncn1)C(=O)O (stereo not drawn) [Example 2-40]
- melting point: 86 to 88 °C
- IC50 (IP receptor): < 100 nM

Structure (SMILES): CCCCC(Nc1cc(-c2ccc(OCc3cccc(OC)c3)cc2)ncn1)C(=O)O (stereo not drawn) [Example 2-44]
- melting point: 115 to 118 °C
- IC50 (IP receptor): < 100 nM

Structure (SMILES): CCCCC(Nc1cc(-c2ccc(OCc3cc(OC)cc(OC)c3)cc2)ncn1)C(=O)O (stereo not drawn) [Example 2-45]
- melting point: 88 to 93 °C
- IC50 (IP receptor): < 100 nM

Structure (SMILES): CCCCC(Nc1cc(-c2ccc(OCc3cc(F)cc(F)c3)cc2)ncn1)C(=O)O (stereo not drawn) [Example 2-46]
- melting point: 141 to 147 °C
- IC50 (IP receptor): < 100 nM

Structure (SMILES): O=C(O)C(Cc1ccccc1)Nc1cncc(-c2ccc(OCc3ccccc3)cc2)n1 (stereo not drawn) [Example 3-2]
- melting point: 89 to 92 °C
- IC50 (IP receptor): > 1000 nM

Structure (SMILES): O=C(O)C(Cc1ccccc1)Nc1cccc(-c2ccc(OCc3ccccc3)cc2)n1 (stereo not drawn) [Example 3-3]
- melting point: 81 to 84 °C
- IC50 (IP receptor): > 1000 nM

Structure (SMILES): O=C(O)C(Cc1ccccc1)Nc1cc(-c2ccc(OCc3ccccc3)cc2)ccn1 (stereo not drawn) [Example 3-4]
- melting point: 194 to 196 °C
- IC50 (IP receptor): < 100 nM

Structure (SMILES): CN(C)CCOc1cccc(C[C@H](Nc2cc(-c3ccc(OCc4ccccc4)cc3)ncn2)C(=O)O)c1 [Example 4-1, N-{6-[4-(Benzyloxy)phenyl]pyrimidin-4-yl}-3-[2-(dimethylamino)ethoxy]phenylalanine]
- melting point: 143.1 °C
- IC50 (IP receptor): < 100 nM

Structure (SMILES): NCCOc1cccc(C[C@H](Nc2cc(-c3ccc(OCc4ccccc4)cc3)ncn2)C(=O)O)c1 [Example 5-1, 3-(2-Aminoethoxy)-N-{6-[4-(benzyloxy)phenyl]pyrimidin-4-yl}phenylalanine]
- melting point: 153.8 °C
- IC50 (IP receptor): < 100 nM

Structure (SMILES): O=C(O)[C@H](Cc1ccccc1)Nc1cc(-c2ccc(/C=C/c3ccccc3)cc2)ncn1 [Example 7-1, N-(6-{4-[(E)-2-Phenylvinyl]phenyl}pyrimidin-4-yl)phenylalanine]
- melting point: 214 to 216 °C (dec.)
- IC50 (IP receptor): < 100 nM

Structure (SMILES): O=C(O)[C@H](Cc1ccccc1)Nc1cc(-c2ccc(C#Cc3ccccc3)cc2)ncn1 [Example 9-1, N-{6-[4-(Phenylethynyl)phenyl]pyrimidin-4-yl}phenylalanine]
- melting point: 215 to 218 °C (dec.)
- IC50 (IP receptor): < 100 nM

Structure (SMILES): O=C(O)[C@H](Cc1ccccc1)Nc1cc(-c2ccc(/C=C\c3ccccc3)cc2)ncn1 [Example 10-1, N-(6-{4-[(Z)-2-Phenylvinyl]phenyl}pyrimidin-4-yl)phenylalanin]
- melting point: 217 to 220 °C (dec.)
- IC50 (IP receptor): < 100 nM

Structure (SMILES): O=C(O)C(Cc1ccccc1)Nc1cc(-c2ccc(-c3ccc4c(c3)OCO4)cc2)ncn1 (stereo not drawn) [Example 11-2]
- melting point: 139 to 142 °C (dec.)
- IC50 (IP receptor): < 100 nM

Structure (SMILES): CSc1ccc(-c2ccc(-c3cc(NC(Cc4ccccc4)C(=O)O)ncn3)cc2)cc1 (stereo not drawn) [Example 11-3]
- melting point: 135 to 137 °C (dec.)
- IC50 (IP receptor): < 100 nM

Structure (SMILES): COc1cccc(-c2ccc(-c3cc(NC(Cc4ccccc4)C(=O)O)ncn3)cc2)c1 (stereo not drawn) [Example 11-4]
- melting point: 112 to 114 °C (dec.)
- IC50 (IP receptor): < 100 nM

Structure (SMILES): O=C(O)C(Cc1ccccc1)Nc1cc(-c2ccc(-c3ccc4ccccc4c3)cc2)ncn1 (stereo not drawn) [Example 11-5]
- melting point: 130 to 132 °C (dec.)
- IC50 (IP receptor): < 100 nM

Structure (SMILES): O=C(O)C(Cc1ccccc1)Nc1cc(-c2ccc(-c3cccc(-c4ccccc4)c3)cc2)ncn1 (stereo not drawn) [Example 11-6]
- melting point: 124 to 126 °C (dec.)
- IC50 (IP receptor): 100 to 1000 nM

Structure (SMILES): O=C(O)C(Cc1ccccc1)Nc1cc(-c2ccc(-c3cccc4ccccc34)cc2)ncn1 (stereo not drawn) [Example 11-7]
- melting point: 135 to 138 °C (dec.)
- IC50 (IP receptor): 100 to 1000 nM

Structure (SMILES): O=C(O)C(Cc1ccccc1)Nc1cc(-c2ccc(-c3cccc([N+](=O)[O-])c3)cc2)ncn1 (stereo not drawn) [Example 11-9]
- melting point: 125 to 127 °C (dec.)
- IC50 (IP receptor): < 100 nM

Structure (SMILES): COc1ccccc1-c1ccc(-c2cc(NC(Cc3ccccc3)C(=O)O)ncn2)cc1 (stereo not drawn) [Example 11-10]
- melting point: 121 to 123 °C (dec.)
- IC50 (IP receptor): 100 to 1000 nM

Structure (SMILES): O=C(O)C(Cc1ccccc1)Nc1cc(-c2ccc(-c3ccc(Oc4ccccc4)cc3)cc2)ncn1 (stereo not drawn) [Example 11-11]
- melting point: 120 to 123 °C (dec.)
- IC50 (IP receptor): 100 to 1000 nM

Structure (SMILES): COc1cc(-c2ccc(-c3cc(NC(Cc4ccccc4)C(=O)O)ncn3)cc2)cc(OC)c1OC (stereo not drawn) [Example 11-12]
- melting point: 120 to 123 °C
- IC50 (IP receptor): 100 to 1000 nM

Structure (SMILES): O=C(Nc1ccc(-c2cc(N[C@@H](Cc3ccccc3)C(=O)O)ncn2)cc1)c1ccccc1 [Example 14-1, N-{6-[4-(Benzoylamino)phenyl]pyrimidin-4-yl}phenylalanine]
- melting point: 250 to 252 °C (dec.)
- IC50 (IP receptor): 100 to 1000 nM

Structure (SMILES): CC(C)(C)OC(=O)Nc1ccc(-c2cc(NC(Cc3ccccc3)C(=O)O)ncn2)cc1 (stereo not drawn) [Example 14-2]
- melting point: 153 to 155 °C (dec.)
- IC50 (IP receptor): 100 to 1000 nM

Structure (SMILES): O=C(Cc1ccccc1)Nc1ccc(-c2cc(NC(Cc3ccccc3)C(=O)O)ncn2)cc1 (stereo not drawn) [Example 14-3]
- melting point: 145 to 148 °C (dec.)
- IC50 (IP receptor): 100 to 1000 nM

Structure (SMILES): O=C(O)C(Cc1ccccc1)Nc1cc(-c2ccc(NS(=O)(=O)c3ccc(F)cc3)cc2)ncn1 (stereo not drawn) [Example 15-2]
- melting point: 217 to 220 °C (dec.)
- IC50 (IP receptor): > 1000 nM

Structure (SMILES): O=C(c1ccccc1)c1ccc(-c2cc(N[C@@H](Cc3ccccc3)C(=O)O)ncn2)cc1 [Example 17-1, N-[6-(4-Benzoylphenyl)pyrimidin-4-yl]phenylalanine]
- melting point: 109 to 111 °C
- IC50 (IP receptor): < 100 nM

Structure (SMILES): O=C(c1ccc(-c2cc(NC(Cc3ccccc3)C(=O)O)ncn2)cc1)C1CCCCC1 (stereo not drawn) [Example 17-2]
- melting point: 116 to 119 °C
- IC50 (IP receptor): 100 to 1000 nM

Structure (SMILES): O=C(c1ccc(-c2cc(NC(Cc3ccccc3)C(=O)O)ncn2)cc1)C1CCCC1 (stereo not drawn) [Example 17-3]
- melting point: 114 to 116 °C
- IC50 (IP receptor): < 100 nM
